Where two headings read alike, the source gives them in different places. Blank lines part the entries; values can stand above or below the molecule they belong to. Square brackets hold non-standard residues; d marks the D form. Peptide text beside a SMILES is read from it. * marks the point of attachment. Sta = CC(C)C[C@H](N)[C@@H](O)CC(=O)O; Isovaleryl = CC(C)CC(=O)*
Legend:
[1] = target: T1, neprosin (mature catalytic domain, recombinant) (Nepenthes ventricosa x Nepenthes alata, UniProt C0HLV2); experiment: fluorogenic peptide cleavage (FS6-QPQL), inhibition curve; format: biochemical
T1 construct: Mature catalytic domain S129-Q380 from autolysis of pro-neprosin at P128-S129 (pro-domain R25-P128 removed); C-terminal Ala-Ile-Ala plus His6 tag kept; expressed in human Expi293F cells; glycosylated at N145 and N152; monomer

[2] = target: T2, mature neprosin (catalytic domain, S129-Q380) with C-terminal His6 tag (Nepenthes x ventrata, UniProt C0HLV2 129-380, N-linked glycans at N145 and N152); experiment: crystal structure; orthorhombic crystals of pro-neprosin (native and Lu-Xo4 derivative), polypeptide cleaved at P128-S129; protein in 20 mM Tris-HCl pH 7.5, 150 mM NaCl; reservoir 0.1 M sodium acetate pH 4.0, 22% PEG 6000, 10% isopropanol, 20 °C; conditions: both partners purified
T2 construct: neprosin from Nepenthes x ventrata, UniProt C0HLV2, catalytic domain S129-Q380 released by cleavage at P128-S129; C-terminal purification tag, numbered A401-I402-A403 + H404-H409; written as a part because it lies in the active-site cleft of a symmetry mate; also called neprosin CD; mature enzyme; source: human Expi293F cells; pro-neprosin purified (Ni-NTA), autolysis at pH 2.5, then SEC; in the …
T2 sequence: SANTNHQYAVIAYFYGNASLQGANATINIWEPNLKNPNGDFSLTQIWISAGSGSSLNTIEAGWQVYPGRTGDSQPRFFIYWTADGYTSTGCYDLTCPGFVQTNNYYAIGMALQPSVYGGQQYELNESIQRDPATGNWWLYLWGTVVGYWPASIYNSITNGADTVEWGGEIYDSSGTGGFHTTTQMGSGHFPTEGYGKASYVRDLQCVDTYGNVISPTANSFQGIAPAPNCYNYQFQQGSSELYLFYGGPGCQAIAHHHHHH

IC50 [1]: 480 µM
Molecule: O=[N+]([O-])c1ccc(OCC2CO2)cc1 (stereo not drawn) [EPNP, 2-[(4-nitrophenoxy)methyl]oxirane]

IC50 ([1]; 50 nM neprosin, 10 μM FS6-QPQL, 100 mM glycine pH 3.0, 37 °C, pre-incubated >1 h (pre-incubation stated for the inhibitor screen)): 140 µM
Molecule: CC(C)CC(=O)N[C@H](C(=O)N[C@H](C(=O)N[C@@H](CC(C)C)[C@@H](O)CC(=O)N[C@@H](C)C(=O)N[C@@H](CC(C)C)[C@@H](O)CC(=O)O)C(C)C)C(C)C [pepstatin A] (Isovaleryl-VV[Sta]A[Sta]-OH)

binding result [2]: binds
B1: neprosin pro-domain (PD, R25-P128) (domain or fragment, Nepenthes x ventrata, UniProt C0HLV2 25-128, looked up)
chain: RSIQARLANKPKGTIKTIKGDDGEVVDCVDIYKQPAFDHPLLKNHTLQMQPSSYASKVGEYNKLEQPWHKNGECPKGSIPIRRQVITGLPVVKKQFPNLKFAPP
notes: neprosin from Nepenthes x ventrata, UniProt C0HLV2, N-terminal pro-domain R25-P128: globular part A29-G112 and linker L113-P128; Defined in the map from A29 onwards; Y77-N86 and N122 onwards are disordered; also called cleaved PD; source: human Expi293F cells; pro-neprosin purified (Ni-NTA, SEC), found cleaved at P128-S129 in the crystals

Source: paper PMC9343461, “Molecular and in vivo studies of a glutamate-class prolyl-endopeptidase for coeliac disease therapy” (Nature Communications, 2022)
